Molecules are shown by their SMILES.

One test relates to OF1 mice. Briefly: Maximal electroshock test (MES Test). The settings on record: Mus musculus, po; 50 mg/kg, p.o., pre-treatment time −1 h; read-out: %-Protection. Format: in vivo. Summed up:
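Compound given p.o. (typically 50 mg/kg) 1 h before tonic-clonic convulsions were induced via temporal electrodes (50 Hz, 18 mA, 0.2 s); seizure lasting 3 s or less counted as protection. Read-out is percent protected of five mice per condition; ED50 calculated, blood exposure sampled after shock.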
(In general: In the maximal electroshock model the usual endpoint is tonic extension of the hind limbs.)
Turning to `CC(C)c1cc2[nH]c(=O)n(N(C(=O)C(C)(C)C)S(C)(=O)=O)c(=O)c2cc1-c1ccnn1C` [Example 3.23, N-(2,2-Dimethyl-propionyl)-N-[7-isopropyl-6-(2-methyl-2H-pyrazol-3-yl)-2,4-dioxo-1,4-dihydro-2H-quinazolin-3-yl]-methanesulfonamide], the responders at 50 mg/kg was found to be 20%.

For the compound `CCCCCC(=O)N(n1c(=O)[nH]c2cc(CC)c(-c3ccnn3CC)cc2c1=O)S(C)(=O)=O` [Example 13.02, N-[7-Ethyl-6-(2-ethyl-2H-pyrazol-3-yl)-2,4-dioxo-1,4-dihydro-2H-quinazolin-3-yl]-N-hexanoyl-methanesulfonamide], the responders at 50 mg/kg is 20%.

Consider `CCCC(=O)N(n1c(=O)[nH]c2cc(C(C)C)c(-c3ccnn3C)cc2c1=O)S(C)(=O)=O` [Example 3.13, N-Butyryl-N-[7-isopropyl-6-(2-methyl-2H-pyrazol-3-yl)-2,4-dioxo-1,4-dihydro-2H-quinazolin-3-yl]-methanesulfonamide], for which the responders at 50 mg/kg turned out to be 100%.

Turning to `CCC(OC)c1cc2c(=O)n(N(C(C)=O)S(C)(=O)=O)c(=O)[nH]c2cc1C(F)(F)F` (stereo not drawn) [Example 11.08, N-Acetyl-N-[6-(1-methoxy-propyl)-2,4-dioxo-7-trifluoromethyl-1,4-dihydro-2H-quinazolin-3-yl]-methanesulfonamide], the responders at 50 mg/kg is 80%.

`CC(C)C(=O)N(n1c(=O)[nH]c2cc(C(F)(F)F)c(-c3ccnn3C(C)C)cc2c1=O)S(C)(=O)=O` [Example 5.05, N-Isobutyryl-N-[6-(2-isopropyl-2H-pyrazol-3-yl)-2,4-dioxo-7-trifluoromethyl-1,4-dihydro-2H-quinazolin-3-yl]-methanesulfonamide]: the responders at 50 mg/kg stood at 60%.

Consider `COCCOC(=O)N(n1c(=O)[nH]c2cc(C(F)F)c(-c3ccnn3C(C)C)cc2c1=O)S(C)(=O)=O` [Example 6.07, [7-Difluoromethyl-6-(2-isopropyl-2H-pyrazol-3-yl)-2,4-dioxo-1,4-dihydro-2H-quinazolin-3-yl]-methanesulfonyl-carbamic acid 2-methoxy-ethyl ester], for which the responders at 50 mg/kg is 40%.

Consider `CCCCC(=O)N(n1c(=O)[nH]c2cc(C(F)(F)F)c(-c3ccnn3C)cc2c1=O)S(C)(=O)=O` [Example 1.01, N-[6-(2-Methyl-2H-pyrazol-3-yl)-2,4-dioxo-7-trifluoromethyl-1,4-dihydro-2H-guinazolin-3-yl]-N-pentanoyl-methanesulfonamide], for which the responders at 50 mg/kg amounted to 40%.

`CCCC(=O)N(n1c(=O)[nH]c2cc(C(F)(F)F)c(C(CC)OC)cc2c1=O)S(C)(=O)=O` (stereo not drawn) [Example 11.07, N-Butyryl-N-[6-(1-methoxy-propyl)-2,4-dioxo-7-trifluoromethyl-1,4-dihydro-2H-quinazolin-3-yl]-methanesulfonamide]: the responders at 50 mg/kg came to 100%.

Take `CCC(O)c1cc2c(=O)n(N(C(=O)C(C)C)S(C)(=O)=O)c(=O)[nH]c2cc1C(F)(F)F` (stereo not drawn) [Example 12.04, N-[6-(1-Hydroxy-propyl)-2,4-dioxo-7-trifluoromethyl-1,4-dihydro-2H-quinazolin-3-yl]-N-isobutyryl-methanesulfonamide]: the responders at 50 mg/kg was determined as 40%.

Regarding `CCc1cc2c(cc1-c1ccnn1C)c(=O)n(N(C(C)=O)S(C)(=O)=O)c(=O)n2C(C)=O` [Example 2.14, N-Acetyl-N-[1-acetyl-7-ethyl-6-(2-methyl-2H-pyrazol-3-yl)-2,4-dioxo-1,4-dihydro-2H-quinazolin-3-yl]-methanesulfonamide], the responders at 50 mg/kg was 100%.

For `CC(=O)OCC(=O)N(n1c(=O)[nH]c2cc(C(F)(F)F)c(-n3cccc3)cc2c1=O)S(C)(=O)=O` [Example 8.03, Acetic acid 2-[(2,4-dioxo-6-pyrrol-1-yl-7-trifluoromethyl-1,4-dihydro-2H-quinazolin-3-yl)-methanesulfonyl-amino]-2-oxo-ethyl ester], the responders at 50 mg/kg turned out to be 40%.

For the compound `CCc1cc2[nH]c(=O)n(N(C(=O)OC)S(C)(=O)=O)c(=O)c2cc1-c1ccnn1C` [Example 2.07, Methanesulfonyl-[7-ethyl-6-(2-methyl-2H-pyrazol-3-yl)-2,4-dioxo-1,4-dihydro-2H-quinazolin-3-yl]-carbamic acid methyl ester], the responders at 50 mg/kg turned out to be 100%.

As to `CC(C)C(=O)N(n1c(=O)[nH]c2cc(C(F)(F)F)c(-c3ccnn3C)cc2c1=O)S(C)(=O)=O` [Example 1.02, N-Isobutyryl-N-[6-(2-methyl-2H-pyrazol-3-yl)-2,4-dioxo-7-trifluoromethyl-1,4-dihydro-2H-quinazolin-3-yl]-methanesulfonamide], the responders at 50 mg/kg is 100%.

On to `CCCCCC(=O)N(n1c(=O)[nH]c2cc(C(C)C)c(-c3ccnn3C)cc2c1=O)S(C)(=O)=O` [Example 3.14, N-Hexanoyl-N-[7-isopropyl-6-(2-methyl-2H-pyrazol-3-yl)-2,4-dioxo-1,4-dihydro-2H-quinazolin-3-yl]-methanesulfonamide], for which the responders at 50 mg/kg is 100%.

For the compound `CCn1nccc1-c1cc2c(=O)n(N(C(=O)C(C)(C)C)S(C)(=O)=O)c(=O)[nH]c2cc1C(F)(F)F` [Example 15.04, N-(2,2-Dimethyl-propionyl)-N-[6-(2-ethyl-2H-pyrazol-3-yl)-2,4-dioxo-7-trifluoromethyl-1,4-dihydro-2H-quinazolin-3-yl]-methanesulfonamide], the responders at 50 mg/kg was 20%.

For the compound `CCCCC(=O)N(n1c(=O)[nH]c2cc(C(F)(F)F)c(C(CC)OC)cc2c1=O)S(C)(=O)=O` (stereo not drawn) [Example 11.15, N-[6-(1-methoxy-propyl)-2,4-dioxo-7-trifluoromethyl-1,4-dihydro-2H-quinazolin-3-yl]-N-pentanoyl-methanesulfonamide], the responders at 50 mg/kg was 100%.

Turning to `CC(C)C(=O)N(n1c(=O)[nH]c2cc(C(C)C)c(-c3ccnn3C)cc2c1=O)S(C)(=O)=O` [Example 3.16, N-Isobutyryl-N-[7-isopropyl-6-(2-methyl-2H-pyrazol-3-yl)-2,4-dioxo-1,4-dihydro-2H-quinazolin-3-yl]-methanesulfonamide], the responders at 50 mg/kg is 60%.

Take `CCOC(=O)CC(=O)N(n1c(=O)[nH]c2cc(C(F)(F)F)c(-c3ccnn3C(C)C)cc2c1=O)S(C)(=O)=O` [Example 5.12, 3-{[6-(2-Isopropyl-2H-pyrazol-3-yl)-2,4-dioxo-7-trifluoromethyl-1,4-dihydro-2H-quinazolin-3-yl]-methanesulfonyl-amino}-3-oxo-propionic acid ethyl ester]: the responders at 50 mg/kg stood at 40%.

With `CCCOC(=O)N(n1c(=O)[nH]c2cc(C(F)(F)F)c(C(CC)OC)cc2c1=O)S(C)(=O)=O` (stereo not drawn) [Example 11.04, Methanesulfonyl-[6-(1-methoxy-propyl)-2,4-dioxo-7-trifluoromethyl-1,4-dihydro-2H-quinazolin-3-yl]-carbamic acid propyl ester], the responders at 50 mg/kg was determined as 20%.

The test is the same for the next values; noted with them: Mus musculus, po; 50 mg/kg, p.o., pre-treatment time −2 h (footnote a); read-out: %-Protection.
With `CC(C)CC(=O)N(n1c(=O)[nH]c2cc(C(F)(F)F)c(-n3cnnc3)cc2c1=O)S(C)(=O)=O` [Example 9.01, N-(2,4-Dioxo-6-[1,2,4]triazol-4-yl-7-trifluoromethyl-1,4-dihydro-2H-quinazolin-3-yl)-N-(3-methyl-butyryl)-methanesulfonamide], the responders at 50 mg/kg came out at 40%.

Still in this test, the particulars now being: Mus musculus, po; Dose: 15 mg/kg, p.o. (footnote c), pre-treatment time −1 h; read-out: %-Protection.
For the compound `CC(C)COC(=O)N(n1c(=O)[nH]c2cc(C(C)C)c(-c3ccnn3C)cc2c1=O)S(C)(=O)=O` [Example 3.03, [7-Isopropyl-6-(2-methyl-2H-pyrazol-3-yl)-2,4-dioxo-1,4-dihydro-2H-quinazolin-3-yl]-methanesulfonyl-carbamic acid isobutyl ester], the responders at 15 mg/kg was found to be 40%.

The same test, now with this note: Mus musculus, po; Dose: 25 mg/kg, p.o. (footnote b), pre-treatment time −1 h; read-out: %-Protection.
Turning to `CCc1cc2[nH]c(=O)n(N(C(=O)OCC(C)C)S(C)(=O)=O)c(=O)c2cc1-c1ccnn1C` [Example 2.04, Methanesulfonyl-[7-ethyl-6-(2-methyl-2H-pyrazol-3-yl)-2,4-dioxo-1,4-dihydro-2H-quinazolin-3-yl]-carbamic acid isobutyl ester], the responders at 25 mg/kg worked out at 80%.

The same test, now with this note: Mus musculus; dose of up to 50 mg/kg, p.o., 1 hour prior to induction of convulsions; read-out: %-Protection.
Consider `CC(C)C(=O)N(n1c(=O)[nH]c2cc(C(F)F)c(-c3ccnn3C(C)C)cc2c1=O)S(C)(=O)=O` [N-[7-Difluoromethyl-6-(2-isopropyl-2H-pyrazol-3-yl)-2,4-dioxo-1,4-dihydro-2H-quinazolin-3-yl]-N-isobutyryl-methanesulfonamide], for which the responders at 50 mg/kg came out at 0%.

Regarding `CCn1nccc1-c1cc2c(=O)n(N(C(C)=O)S(C)(=O)=O)c(=O)[nH]c2cc1C(F)F` [N-Acetyl-N-[7-difluoromethyl-6-(2-ethyl-2H-pyrazol-3-yl)-2,4-dioxo-1,4-dihydro-2H-quinazolin-3-yl]-methanesulfonamide], the responders at 50 mg/kg is 0%.

As for `CC(C)C(=O)N(n1c(=O)[nH]c2cc(C(F)(F)F)c([C@H]3CCCO3)cc2c1=O)S(C)(=O)=O` [N—((R)-2,4-Dioxo-6-tetrahydro-furan-2-yl-7-trifluoromethyl-1,4-dihydro-2H-quinazolin-3-yl)-N-isobutyryl-methanesulfonamide], the responders at 50 mg/kg worked out at 0%.

As to `CCCOC(=O)N(n1c(=O)[nH]c2cc(CC)c(-c3ccnn3CC)cc2c1=O)S(C)(=O)=O` [Methanesulfonyl-[7-ethyl-6-(2-ethyl-2H-pyrazol-3-yl)-2,4-dioxo-1,4-dihydro-2H-quinazolin-3-yl]carbamic acid propyl ester], the responders at 50 mg/kg stood at 0%.

For `CC(C)OC(=O)N(n1c(=O)[nH]c2cc(C(F)(F)F)c([C@H]3CCCO3)cc2c1=O)S(C)(=O)=O` [Methanesulfonyl-[(R)-2,4-Dioxo-6-tetrahydro-furan-2-yl-7-trifluoromethyl-1,4-dihydro-2H-quinazolin-3-yl]carbamic acid isopropyl ester], the responders at 50 mg/kg was 0%.

The values above are taken from patent US20130053381A1, “2,4-DIOXO-1,4-DIHYDRO-2H-QUINAZOLIN-3-YL-SULFONAMIDE DERIVATIVES” (NOVARTIS AG, priority 2010, published 2013).
